Data: PMC9887155, “Kinetics of cone specific G-protein signaling in avian photoreceptor cells” (Frontiers in Molecular Neuroscience, 2023)
Entries after “also recorded” stand apart in the source; their conditions may differ. Ends that are not written are not given here.

What was measured:
[1] = system: Gtα/Giα chimera (cone specific G protein α-subunit); experiment: SPR interaction of LWO peptides with immobilized Gtα/Giα chimera; type: binding, European robin (Erithacus rubecula); conditions: for binding to Gtα/Giα (qualitative): immobilized Gtα/Giα, pH 7.4
Experimental: The peptides representing the cytoplasmic loops of LWO (Figure 1) were purchased from Genscript (Netherlands). Sequences of the peptides were deduced from genetic sequences of the European robin genome ([Dunn et al., 2021]). Two control peptides were ordered containing scrambled sequences of LWO2 and LWO3 assigned as LWO2-sc and LWO3-sc, respectively (Table 1). To the N-terminus of each peptide, a linker (CGAGA or CGAGAG) was added to allow for specific covalent coupling via cysteine. All peptides were ordered to a purity of >90% and contained no further N-terminal modifications. The C-terminus of peptides LWO-1-3 were amidated to simulate a continuation of the peptide chain, while LWO-4 was left unmodified to represent the opsin C-terminus. Quality control by LC–MS was performed by Genscript, and concentrations of the peptides were confirmed by UV–vis measurements.
We used a Gtα/Giα chimera to allow functional expression in E. coli according to previous attempts with bovine Gtα ([Skiba et al., 1996]). Cloning of the Gtα variants was performed by PCR mutagenesis of the plasmid described in [Görtemaker et al. (2022)]. In short, the construct contained an N-terminal 6x histidine tag and SUMO (Small Ubiquitin like MOdifier) protein (for metal affinity purification and subsequent tag cleavage) followed by the Gtα chimera. Truncation of 3 and 6 amino acids was performed using the primers 1 and 2 and 1 and 3, respectively. Sequences are available in Supplementary Table S1. The truncated variants were expressed following the same protocol as the full-length protein.
Purification of the Gtα/Giα chimera was performed as exactly described previously ([Görtemaker et al., 2022]). We used the same procedure for purification of the truncated Gtα variants, but we excluded the final size exclusion chromatography. Protein samples were analyzed by standard analytical techniques such as sodium dodecyl-sulfate polyacrylamide gel electrophoresis (SDS-PAGE) and protein quantification according to established procedures in the laboratory ([Elbers et al., 2018]).
Surface plasmon resonance (SPR) measurements were performed on a Biacore 3,000 (GE Healthcare now Cytiva). We followed the general operation principle that had been described before ([Koch, 2000]; [Komolov et al., 2009]). In the present work, we immobilized the non-myristoylated Gtα/Giα chimera or its truncated variants using CM5 sensor chips (GE Healthcare) for all applications exactly as previously described ([Görtemaker et al., 2022]). Immobilization densities of Gtα/Giα were 2.6–3.4 ng/mm^2. The truncated variants Gt-3AA and Gt-6AA bound to the senor chip surface at densities of 3.1–4.2 ng/mm^2. First, we studied the interaction processes by injection of peptides representing the cytoplasmic regions in LWO (Table 1). Two peptides made from the amino acids present in LWO2 and LWO3, but in scrambled order (Table 1), served as controls. We injected different concentrations (10, 50, 100, and 200 nM or alternatively: 10, 25, 45, 55, 75, and 100 nM) at a flow rate of either 25 μl/min or 50 μl/min in SPR running buffer (10 mM HEPES/NaOH, pH 7.4, 150 mM NaCl, 10 mM MgCl2, 0.005% Tween-20, 3.4 mM EDTA). In addition, we coated control surfaces with ubiquitin-like-protease 1 as previously described ([Görtemaker et al., 2022]). For kinetic investigation of LWO2 binding to Gtα/Giα, we injected different peptide concentrations in random order. Regeneration of the surface was performed with a basic-detergent cocktail adopted from [Andersson et al. (1999)] containing final concentrations of 12.5 mM of ethanolamine, Na2PO4, piperazine, and glycine set to a pH of 11.75, as well as containing 0.2% sodium dodecyl sulfate. Despite the relatively harsh conditions, regeneration was judged to be slightly incomplete. […] With the conditions used, reproducible data was still obtained. Sensorgrams were evaluated by nonlinear curve fitting applying the global fitting approach (BIAevaluation software 4.1, GE Healthcare). […]

Gtα/Giα chimera = experiment: FRET interaction of dansylated peptides with Gtα/Giα in solution; type: binding, European robin (Erithacus rubecula); conditions: excitation 280 nm; for decrease of fluorescence emission in the presence of Gtα/Giα: FRET, dansylated peptide and Gtα/Giα each 16.7 μM, GDP 10 μM, incubated on ice in the dark 30 min, pH 7.4; for fluorescence emission maximum: dansylated peptide 16.7 μM, 80 mM Hepes pH 7.4, 40 mM KCl, 150 mM NaCl, 10 mM MgCl2
Experimental: Interaction of the Gtα/Giα chimera with peptide LWO2 and the control peptide LWO2-sc was tested by Förster resonance energy transfer (FRET) measurements. We designed an experiment using fluorescence excitation at 280 nm of endogenous Trp residues in Gtα/Giα and peptide and emission of Trp fluorescence at 334 nm that excited the fluorescence dye 5-Dimethylamino-1-naphthalinsulfonyl chloride (dansyl chloride). The emission spectrum of dansyl chloride was recorded between 400 and 550 nm. For this purpose, we coupled dansyl chloride to free amino groups in LWO2 and LWO2-sc. Peptides were solved in H20 bidest (1 mg/ml) and 66 μl of a peptide solution were mixed with 50 μl borat buffer (0.1 M, pH 9.5). Twenty-five μL dansyl chloride (1 mg/ml in acetone) were added and the solutions were incubated at room temperature for 5 h in darkness. Afterwards, we separated non-reacted dansyl chloride, non-reacted peptides and covalently labeled LWO2 or LWO2-sc by reversed phase liquid chromatography (HPLC) using a LiChrospher® 100 RP-18 (5 μm) column (Merck, Germany) in a Hitachi Primaide HPLC system. The column was equilibrated in 0.1% trifluoro-acetic acid (v/v) in H2O bidest. Separation was achieved by applying a gradient from 0.1% trifluoro-acetic acid (v/v) in H2O bidest to 100% acetonitrile with 0.1% trifluoro-acetic acid (v/v) in 55 min. Peaks were detected at 280 nm and the area was used to calculate the coupling yield that was at 84–97% for both peptides. FRET measurements employing the FRET pair intrinsic tryptophan and attached dansyl were performed with a fluorescence spectrometer from photon Technology International. The basic operation principle was essentially as described before ([Behnen et al., 2009]; [Scholten and Koch, 2011]) using the following modifications. Shortly before recording the spectrum, the dansylated LWO2 (or LWO2-sc) containing fraction of the HPLC elution was diluted in fluorescence buffer (80 mM Hepes pH 7.4, 40 mM KCl, 150 mM NaCl, 10 mM MgCl2) at a final concentration of 16.7 μM. After adding the G protein, the mixtures were incubated on ice in the dark for 30 min. During the measurements with the Gtα/Giα, it was present in GDP-bound conformation ([GDP] = 10 μM). The excitation wavelength was set to 280 nm and the emission spectrum was recorded from 400 to 550 nm. Recording and analysis of the data was performed using Photon Technology International software package FELIX32.

Substance: CGAGA-FRVKDGWINPGKFEVWCKF [LWO2-sc]
- binding to Gtα/Giα (qualitative) ([1]; peptide 100 nM): slight decrease in resonance units indicating no binding signal
- fluorescence emission of label-free peptide (control) (Gtα/Giα chimera; label-free peptide alone or with Gtα/Giα): No fluorescence emission was also observed

Substance: CGAGA-GSKSQRARAEQVETAQAKAEISVEK [LWO3-sc]
- binding to Gtα/Giα (qualitative) ([1]; peptide 100 nM): did not indicate a binding process

Substance: CGAGA-TAKFKKLRHPLNWI [LWO1, peptide representing a cytoplasmic loop of European robin long wavelength opsin]
- binding to Gtα/Giα (qualitative) ([1]; peptide 100 nM): did not indicate a binding process

Substance: CGAGAG-AIRAVAAQQKESESTQKAEKEVSR [LWO3, peptide representing the third cytoplasmic loop of European robin LWO]
- binding to Gtα/Giα (qualitative) ([1]; peptide 100 nM): slight decrease in RU and a kind of recovery phase; also recorded: did not detect any interaction
- positive response during subsequent buffer flow ([1]; peptide 100 nM, buffer flow after injection, decreased over time): ca. 10 RU
- binding to Gtα/Giα (qualitative), 200 nM ([1]; peptide 200 nM, Supplementary Figure S1): no specific binding process occurred

Substance: CGAGAG-NRQFRNCILQLFGKKVDDGSEVSTSRTEVSSVSNSSGS [LWO4, peptide representing the opsin C-terminus of European robin LWO]
- binding to Gtα/Giα (qualitative) ([1]; peptide 100 nM): did not indicate a binding process

Substance: dansyl-LWO2-sc: LWO2-sc with dansyl chloride coupled to free amino groups (CGAGAFRVKDGWINPGKFEVWCKF; cysteine pairing not given here; also: dansyl coupled to free amino groups)
- decrease of fluorescence emission in the presence of Gtα/Giα (Gtα/Giα chimera): 9,000 relative fluorescence counts
- fluorescence emission maximum (Gtα/Giα chimera): 516 nm

Substance: dansyl-LWO2: LWO2 with dansyl chloride coupled to free amino groups (CGAGAWERWFVVCKPFGNIKFDGK-NH2; cysteine pairing not given here; also: dansyl coupled to free amino groups)
- decrease of fluorescence emission in the presence of Gtα/Giα (Gtα/Giα chimera): 14,000 relative fluorescence counts
- fluorescence emission maximum (Gtα/Giα chimera): 510 nm
